Source: the NIST ThermoML archive (doi:10.1016/j.fluid.2019.112263)

Tests used:
[1] = 101.33 kPa, Liquid, transient hot wire
[2] = wn = mass fraction of the nth substance listed; conditions: 100 kPa, Liquid, transient hot wire

CCO [ethanol]
[1]
Conditions | thermal conductivity [W/m/K]
276.51 K | 0.1719
287.55 K | 0.1677
297.25 K | 0.1645
307.16 K | 0.1617

CCCCCCCCCC(=O)OC [methyl decanoate] + CCCCCO
[2]
Conditions | thermal conductivity [W/m/K]
287.96 K, w1 = 0.1941 | 0.1495
287.96 K, w1 = 0.4008 | 0.1482
287.97 K, w1 = 0.6035 | 0.1467
288 K, w1 = 0.8002 | 0.1456
297.72 K, w1 = 0.1941 | 0.1477
297.73 K, w1 = 0.4008 | 0.1463
297.76 K, w1 = 0.6035 | 0.1453
297.85 K, w1 = 0.8002 | 0.1433
307.69 K, w1 = 0.8002 | 0.1414
307.72 K, w1 = 0.6035 | 0.1432
307.74 K, w1 = 0.4008 | 0.144
307.77 K, w1 = 0.1941 | 0.1451
317.73 K, w1 = 0.4008 | 0.142
317.74 K, w1 = 0.8002 | 0.1396
317.81 K, w1 = 0.6035 | 0.1406
317.86 K, w1 = 0.1941 | 0.1433
327.58 K, w1 = 0.4008 | 0.1405
327.66 K, w1 = 0.6035 | 0.1386
327.75 K, w1 = 0.8002 | 0.1366
327.82 K, w1 = 0.1941 | 0.1408
337.54 K, w1 = 0.8002 | 0.1347
337.6 K, w1 = 0.1941 | 0.1391
337.61 K, w1 = 0.6035 | 0.1361
337.76 K, w1 = 0.4008 | 0.1373
347.58 K, w1 = 0.4008 | 0.1356
347.61 K, w1 = 0.8002 | 0.1315
347.79 K, w1 = 0.1941 | 0.1367
347.85 K, w1 = 0.6035 | 0.1336
357.66 K, w1 = 0.4008 | 0.1333
357.7 K, w1 = 0.6035 | 0.132
357.75 K, w1 = 0.8002 | 0.1299
357.76 K, w1 = 0.1941 | 0.1345

CCCCCCCCCC(=O)OC [methyl decanoate] + CCCCO
[2]
Conditions | thermal conductivity [W/m/K]
287.9 K, w1 = 0.2001 | 0.1497
287.95 K, w1 = 0.8003 | 0.146
287.98 K, w1 = 0.599 | 0.1468
288.35 K, w1 = 0.4002 | 0.1476
297.66 K, w1 = 0.4002 | 0.1458
297.69 K, w1 = 0.2001 | 0.1473
297.81 K, w1 = 0.8003 | 0.1436
298 K, w1 = 0.599 | 0.1441
307.7 K, w1 = 0.2001 | 0.145
307.74 K, w1 = 0.4002 | 0.1436
307.81 K, w1 = 0.599 | 0.1427
307.86 K, w1 = 0.8003 | 0.1412
317.55 K, w1 = 0.2001 | 0.1431
317.7 K, w1 = 0.8003 | 0.1395
317.74 K, w1 = 0.4002 | 0.1418
317.81 K, w1 = 0.599 | 0.1403
327.62 K, w1 = 0.2001 | 0.1398
327.73 K, w1 = 0.4002 | 0.1388
327.78 K, w1 = 0.599 | 0.1382
327.78 K, w1 = 0.8003 | 0.137
337.59 K, w1 = 0.2001 | 0.1379
337.59 K, w1 = 0.4002 | 0.1372
337.66 K, w1 = 0.599 | 0.136
337.78 K, w1 = 0.8003 | 0.1346
347.49 K, w1 = 0.2001 | 0.1363
347.58 K, w1 = 0.599 | 0.1339
347.73 K, w1 = 0.4002 | 0.135
347.8 K, w1 = 0.8003 | 0.1318
357.56 K, w1 = 0.2001 | 0.1337
357.68 K, w1 = 0.4002 | 0.1325
357.71 K, w1 = 0.599 | 0.1317
357.76 K, w1 = 0.8003 | 0.13

CCCCCCCCCC(=O)OC [methyl decanoate] + CCCO
[2]
Conditions | thermal conductivity [W/m/K]
287.88 K, w1 = 0.2022 | 0.1527
287.9 K, w1 = 0.4008 | 0.1495
287.9 K, w1 = 0.5998 | 0.1481
287.98 K, w1 = 0.7993 | 0.1462
297.73 K, w1 = 0.2022 | 0.1501
297.73 K, w1 = 0.7993 | 0.1442
297.77 K, w1 = 0.4008 | 0.1473
297.95 K, w1 = 0.5998 | 0.1454
307.71 K, w1 = 0.2022 | 0.1479
307.75 K, w1 = 0.4008 | 0.1453
307.77 K, w1 = 0.7993 | 0.142
307.81 K, w1 = 0.5998 | 0.1435
317.64 K, w1 = 0.2022 | 0.1459
317.69 K, w1 = 0.4008 | 0.1426
317.74 K, w1 = 0.7993 | 0.1397
317.81 K, w1 = 0.5998 | 0.1414
327.55 K, w1 = 0.2022 | 0.1433
327.56 K, w1 = 0.5998 | 0.1394
327.59 K, w1 = 0.4008 | 0.1408
327.67 K, w1 = 0.7993 | 0.1374
337.58 K, w1 = 0.2022 | 0.1412
337.62 K, w1 = 0.5998 | 0.1371
337.68 K, w1 = 0.7993 | 0.1351
337.72 K, w1 = 0.4008 | 0.138
347.56 K, w1 = 0.2022 | 0.1382
347.64 K, w1 = 0.4008 | 0.136
347.65 K, w1 = 0.5998 | 0.1348
347.65 K, w1 = 0.7993 | 0.1328
357.48 K, w1 = 0.2022 | 0.1362
357.48 K, w1 = 0.7993 | 0.1299
357.51 K, w1 = 0.5998 | 0.1328
357.57 K, w1 = 0.4008 | 0.1341

O [water]
[1]
Conditions | thermal conductivity [W/m/K]
299.55 K | 0.613
309.44 K | 0.6207
319.56 K | 0.6399
339.38 K | 0.653
349.82 K | 0.6704
